Here are results for 21 compounds from patent US12258342B2, “Class of DNA gyrase and/or topoisomerase IV inhibitors with activity against gram-positive and gram-negative bacteria” (Univerza v Ljubljani, priority 2018, dated 2025).

Values after ≈ are worked out from the molar mass of the structure shown.

The subject of one assay is E. faecium ATCC 35667. The assay can be described thus: Microbroth dilution MIC (CLSI). The note with it: Enterococcus faecium, ATCC35667, read-out: MIC (μg/mL) E. faecium ATCC 35667.
A further assay deals with E. coli ATCC 25922. The assay can be described thus: Microbroth dilution MIC (CLSI). The note with it: Escherichia coli, ATCC25922, read-out: MIC (μg/mL) E. coli ATCC 25922.
Another assay deals with E. coli DNA gyrase (Escherichia coli (strain K12), UniProt P0AES6). Kind of assay: DNA gyrase inhibition assay (Inspiralis, streptavidin-coated plates). The format is biochemical. The method, then:
Inhibitory activities for compounds of the present invention were determined on E. coli and S. aureus DNA gyrase and topoisomerase IV in an assay from Inspiralis on streptavidin-coated 96-well microtiter plates from Thermo scientific Pierce. […] After washing off the unbound oligonucleotide, the enzyme test was performed. […] Reaction solutions were incubated at 37° C. for 30 min. After that, the TF buffer (50 mM NaOAc with pH 5.0, 50 mM NaCl and 50 mM MgCl2) was added to terminate the enzymatic reaction. After additional incubation for 30 min at rt, during which biotin-oligonucleotide-plasmid triplex was formed, the unbound plasmid was washed off using TF buffer and SybrGOLD in T10 buffer (10 mM Tris HCl with pH 8.0 and 1 mM EDTA) was added. […] GraphPad Prism 6.0 software was used to calculate the IC50 values. The result is given as the average value of three independent measurements. […] Chemoth.

In a further assay the test system is S. aureus ATCC 29213. Kind of assay: Microbroth dilution MIC (CLSI). The note with it: Staphylococcus aureus, ATCC29213, read-out: MIC (μg/mL) S. aureus ATCC 29213.
Another assay has as its system E. faecalis ATCC 29212. Kind of assay: Microbroth dilution MIC (CLSI). As to conditions: Enterococcus faecalis, ATCC29212, read-out: MIC (μg/mL) E. faecalis ATCC 29212.

Take `O=C(OCc1cc(=O)c(O)co1)c1ccc2nc(NC(=O)c3cc(Br)c(Br)[nH]3)sc2c1` [Example 39, (5-hydroxy-4-oxo-4H-pyran-2-yl)methyl 2-(4,5-dibromo-1H-pyrrole-2-carboxamido)benzo[d]thiazole-6-carboxylate]: the MIC with E. faecium ATCC 35667, in the assay on E. coli ATCC 25922 and in the assay on S. aureus ATCC 29213 was over 64 µg/mL in each case. Also, the IC50 against E. coli DNA gyrase was found to be 1400 ± 20 nM.
Take `Cc1[nH]c(C(=O)Nc2nc3c(F)cc(C(=O)O)cc3s2)c(Cl)c1Cl` [Example 5, 2-(3,4-dichloro-5-methyl-1H-pyrrole-2-carboxamido)-4-fluorobenzo[d]thiazole-6-carboxylic acid]: the MIC is 0.61 µg/mL (≈ 1.57 µM) with E. faecium ATCC 35667, 16 µg/mL (≈ 41.2 µM) in the assay on E. coli ATCC 25922, 0.0625 µg/mL (≈ 0.161 µM) in the assay with E. faecalis ATCC 29212 and 1 µg/mL (≈ 2.58 µM) in the assay with S. aureus ATCC 29213. The compound also had an IC50 against E. coli DNA gyrase of under 5 nM.
The matching figures for `Cc1[nH]c(C(=O)Nc2nc3ccc(C(N)=O)cc3s2)c(Cl)c1Cl` [Example 18, 2-(3,4-dichloro-5-methyl-1H-pyrrole-2-carboxamido)benzo[d]thiazole-6-carboxamide]: over 64 µg/mL, over 64 µg/mL, over 64 µg/mL, 1.16 µg/mL (≈ 3.14 µM) and 11 ± 2 nM.
For `Cc1[nH]c(C(=O)Nc2nc3ccc(-c4nnn[nH]4)cc3s2)c(Cl)c1Cl` [Example 17, N-(6-(1H-tetrazol-5-yl)benzo[d]thiazol-2-yl)-3,4-dichloro-5-methyl-1H-pyrrole-2-carboxamide], in that order: 1.23 µg/mL (≈ 3.12 µM), over 64 µg/mL, 1 µg/mL (≈ 2.54 µM), 16 µg/mL (≈ 40.6 µM) and under 5 nM.
In the case of `O=C(O)CCNC(=O)c1ccc2nc(NC(=O)c3cc(Br)c(Br)[nH]3)sc2c1` [Example 21, 3-(2-(4,5-dibromo-1H-pyrrole-2-carboxamido)benzo[d]thiazole-6-carboxamido)propanoic acid], the MIC in the assay on E. faecium ATCC 35667, in the assay on E. coli ATCC 25922, with E. faecalis ATCC 29212 and in the assay with S. aureus ATCC 29213 was over 64 µg/mL throughout. Besides, on E. coli DNA gyrase, the 50% inhibitory concentration (IC50) turned out to be 12 ± 5 nM.
In the case of `O=C(O)c1ccc2nc(NC(=O)c3cc(Br)c(Br)[nH]3)sc2c1` [Example 2, 2-(4,5-dibromo-1H-pyrrole-2-carboxamido)benzo[d]thiazole-6-carboxylic acid], the MIC with E. faecium ATCC 35667 was 5.56 µg/mL (≈ 12.5 µM); in the assay on E. coli ATCC 25922, over 64 µg/mL; in the assay with E. faecalis ATCC 29212 it was 2.78 µg/mL (≈ 6.25 µM); with S. aureus ATCC 29213 it was over 64 µg/mL. This compound yielded an IC50 against E. coli DNA gyrase of 12 ± 7 nM.
Take `O=C(NO)c1ccc2nc(NC(=O)c3cc(Br)c(Br)[nH]3)sc2c1` [Example 19, 2-(4,5-dibromo-1H-pyrrole-2-carboxamido)-N-hydroxybenzo[d]thiazole-6-carboxamide]: the MIC was over 64 µg/mL in the assay with E. faecium ATCC 35667, over 64 µg/mL in the assay with E. coli ATCC 25922, 64 µg/mL (≈ 139 µM) in the assay with E. faecalis ATCC 29212 and over 64 µg/mL in the assay with S. aureus ATCC 29213. The compound further returned an IC50 at E. coli DNA gyrase of 89 ± 20 nM.
With `O=C(O)c1ccc2nc(N(Cc3ccccc3)C(=O)c3cc(Br)c(Br)[nH]3)sc2c1` [Example 15, 2-(N-benzyl-4,5-dibromo-1H-pyrrole-2-carboxamido)benzo[d]thiazole-6-carboxylic acid], the MIC in the assay on E. faecium ATCC 35667 is 0.83 µg/mL (≈ 1.55 µM); in the assay on E. coli ATCC 25922 it was over 64 µg/mL; in the assay on E. faecalis ATCC 29212, 0.21 µg/mL (≈ 0.392 µM); in the assay with S. aureus ATCC 29213 it was 0.42 µg/mL (≈ 0.785 µM). On E. coli DNA gyrase, this compound yielded an IC50 of 5.1 ± 1.3 nM.
With `O=C(OCc1cc(=O)c(O)c[nH]1)c1ccc2nc(NC(=O)c3cc(Br)c(Br)[nH]3)sc2c1` [Example 40, (5-hydroxy-4-oxo-1,4-dihydropyridin-2-yl)methyl 2-(4,5-dibromo-1H-pyrrole-2-carboxamido)benzo[d]thiazole-6-carboxylate], the MIC with E. faecium ATCC 35667, in the assay on E. coli ATCC 25922 and in the assay on S. aureus ATCC 29213 was over 64 µg/mL throughout. In addition, inhibition at E. coli DNA gyrase was half-maximal at 1700 ± 360 nM (IC50).
In the case of `Cc1[nH]c(C(=O)Nc2nc3cc(C(=O)O)ccc3s2)c(Cl)c1Cl` [Example 4, 2-(3,4-dichloro-5-methyl-1H-pyrrole-2-carboxamido)benzo[d]thiazole-5-carboxylic acid], the MIC in the assay on E. faecium ATCC 35667, in the assay with E. coli ATCC 25922, in the assay on E. faecalis ATCC 29212 and with S. aureus ATCC 29213 was over 64 µg/mL throughout. In addition, the midpoint of inhibition against E. coli DNA gyrase, the IC50, lay at 830 ± 150 nM.
`O=C(O)c1ccc2nc(NC(=O)c3cc(Cl)c(Cl)[nH]3)sc2c1` [Example 3, 2-(4,5-dichloro-1H-pyrrole-2-carboxamido)benzo[d]thiazole-6-carboxylic acid]: the MIC with E. faecium ATCC 35667 was 17.8 µg/mL (≈ 50 µM); with E. coli ATCC 25922 it was over 64 µg/mL; in the assay with E. faecalis ATCC 29212, 8.9 µg/mL (≈ 25 µM); in the assay on S. aureus ATCC 29213 it was over 64 µg/mL. This compound showed an IC50 against E. coli DNA gyrase of 19 ± 1 nM.
Take `Cc1[nH]c(C(=O)Nc2nc3c(O)cc(C(=O)O)cc3s2)c(Cl)c1Cl` [Example 7, 2-(3,4-dichloro-5-methyl-1H-pyrrole-2-carboxamido)-4-hydroxybenzo[d]thiazole-6-carboxylic acid]: the MIC with E. faecium ATCC 35667 was 1.21 µg/mL (≈ 3.13 µM); with E. coli ATCC 25922 it was over 64 µg/mL; in the assay with E. faecalis ATCC 29212 it was 2 µg/mL (≈ 5.18 µM); in the assay on S. aureus ATCC 29213, 16 µg/mL (≈ 41.4 µM). In addition, the IC50 against E. coli DNA gyrase was under 5 nM.
`Cc1[nH]c(C(=O)N(Cc2ccccc2)c2nc3ccc(C(=O)O)cc3s2)c(Cl)c1Cl` [Example 16, 2-(N-benzyl-3,4-dichloro-5-methyl-1H-pyrrole-2-carboxamido)benzo[d]thiazole-6-carboxylic acid]: the MIC with E. faecium ATCC 35667 is 0.36 µg/mL (≈ 0.782 µM); in the assay with E. coli ATCC 25922, 64 µg/mL (≈ 139 µM); with E. faecalis ATCC 29212, at most 0.0312 µg/mL; with S. aureus ATCC 29213, at most 0.0312 µg/mL. Also, the IC50 at E. coli DNA gyrase is under 5 nM.
Turning to `Cc1[nH]c(C(=O)Nc2nc3ccc(C(=O)NCC#N)cc3s2)c(Cl)c1Cl` [Example 26, N-(cyanomethyl)-2-(3,4-dichloro-5-methyl-1H-pyrrole-2-carboxamido)benzo[d]thiazole-6-carboxamide], the MIC in the assay on E. coli ATCC 25922, in the assay on E. faecalis ATCC 29212 and in the assay with S. aureus ATCC 29213 was over 64 µg/mL in each case. The compound also returned an IC50 on E. coli DNA gyrase of 16 ± 4 nM.
With `Cc1[nH]c(C(=O)Nc2nc3c(N4CC[C@H](N)C4)cc(C(=O)O)cc3s2)c(Cl)c1Cl.Cl` [Example 36, (S)-1-(6-carboxy-2-(3,4-dichloro-5-methyl-1H-pyrrole-2-carboxamido)benzo[d]thiazol-4-yl)pyrrolidin-3-aminium chloride], the MIC is at least 32 µg/mL in the assay on E. coli ATCC 25922, 0.5 µg/mL in the assay on E. faecalis ATCC 29212 and 4 µg/mL with S. aureus ATCC 29213. On E. coli DNA gyrase, this compound came in with an IC50 of under 5 nM.
Turning to `O=C(O)c1cc(O)c2nc(NC(=O)c3cc(Br)c(Br)[nH]3)sc2c1` [Example 6, 2-(4,5-dibromo-1H-pyrrole-2-carboxamido)-4-hydroxybenzo[d]thiazole-6-carboxylic acid], the MIC was over 64 µg/mL in the assay with E. faecium ATCC 35667, over 64 µg/mL in the assay on E. coli ATCC 25922, 32 µg/mL (≈ 69.4 µM) in the assay on E. faecalis ATCC 29212 and over 64 µg/mL in the assay on S. aureus ATCC 29213. Moreover, on E. coli DNA gyrase, the midpoint of inhibition, the IC50, lay at 46 ± 33 nM.
Take `Cc1[nH]c(C(=O)Nc2nc3ccc(C(=O)O)c(Cl)c3s2)c(Cl)c1Cl` [Example 14, 7-chloro-2-(3,4-dichloro-5-methyl-1H-pyrrole-2-carboxamido)benzo[d]thiazole-6-carboxylic acid]: the MIC with E. faecium ATCC 35667, in the assay with E. coli ATCC 25922, in the assay on E. faecalis ATCC 29212 and in the assay with S. aureus ATCC 29213 was over 64 µg/mL each time. At E. coli DNA gyrase, this compound returned an IC50 of 310 ± 30 nM.
As for `Cc1[nH]c(C(=O)Nc2nc3ccc(C(=O)NO)cc3s2)c(Cl)c1Cl` [Example 20, 2-(3,4-dichloro-5-methyl-1H-pyrrole-2-carboxamido)-N-hydroxybenzo[d]thiazole-6-carboxamide], the MIC in the assay with E. faecium ATCC 35667 was 38.5 µg/mL (≈ 100 µM); in the assay with E. coli ATCC 25922, over 64 µg/mL; in the assay with E. faecalis ATCC 29212, 0.5 µg/mL (≈ 1.3 µM); in the assay with S. aureus ATCC 29213, 64 µg/mL (≈ 166 µM). The compound further showed an IC50 at E. coli DNA gyrase of 280 ± 10 nM.
`COC(=O)c1cc(N2CC[C@H](N)C2)c2nc(NC(=O)c3[nH]c(C)c(Cl)c3Cl)sc2c1.Cl` [Example 34, (S)-1-(2-(3,4-dichloro-5-methyl-1H-pyrrole-2-carboxamido)-6-(methoxycarbonyl)benzo[d]thiazol-4-yl)pyrrolidin-3-aminium chloride]: the MIC in the assay on E. coli ATCC 25922, in the assay on E. faecalis ATCC 29212 and in the assay on S. aureus ATCC 29213 was at least 32 µg/mL in each case. For the same compound, at E. coli DNA gyrase, the IC50 was 48 ± 9 nM.
On to `Cc1[nH]c(C(=O)Nc2nc3c(OCc4ccccc4)cc(C(=O)NCC#N)cc3s2)c(Cl)c1Cl` [Example 27, 4-(benzyloxy)-N-(cyanomethyl)-2-(3,4-dichloro-5-methyl-1H-pyrrole-2-carboxamido)benzo[d]thiazole-6-carboxamide], for which the MIC with E. coli ATCC 25922 is over 64 µg/mL; with E. faecalis ATCC 29212, 16 µg/mL (≈ 31.1 µM); in the assay with S. aureus ATCC 29213, 4 µg/mL (≈ 7.78 µM). The IC50 on E. coli DNA gyrase stood at 5.4 ± 2 nM.
For `Cc1[nH]c(C(=O)Nc2nc3c(OCCN4CCOCC4)cc(C(=O)NCC#N)cc3s2)c(Cl)c1Cl.Cl` [Example 25, 4-(2-((6-((cyanomethyl)carbamoyl)-2-(3,4-dichloro-5-methyl-1H-pyrrole-2-carboxamido)benzo[d]thiazol-4-yl)oxy)ethyl)morpholin-4-ium chloride], in that order: over 64 µg/mL, over 64 µg/mL, over 64 µg/mL and under 5 nM.
